Laboratory results: patent US10239884B2, “Coelenterazine compounds and uses thereof” (KEIO UNIVERSITY, priority 2017, dated 2019)

Assays:
[1] = tested on: ALuc22; experiment: Bioluminescence intensity, ALuc system test; type: biochemical; settings: 1 μM substrate, relative to nCTZ/ALuc34
Description: (§1) The cells were lysed using a Renilla Luciferase Buffer (E291A; Promega), and the lysate was directly used as an enzyme solution. As luminescent substrates, native CTZ (Nanolight technology) and 6-Al2N3-CTZ (Example 17) were used. Bioluminescence was measured according to the protocol of a Renilla Luciferase Assay System (Cat. No. E2810; Promega). The luminescent substrate was dissolved in methanol to prepare a 1 mM solution. The solution was diluted to 1 μM with Promega buffer, and the diluted solution was used as a substrate solution. To 40 μL of the substrate solution, 10 μL of the cell lysate containing RLuc8.6-535, ALuc16, ALuc22, ALuc23 or ALuc34 was added for starting the luminescent reaction. Using Fujifilm LAS-4000, the luminescence intensities were measured 0 and 20 minutes after the start of the enzyme reaction. Further, from the results of bioluminescence intensity shown in FIG. 3, the bioluminescence intensities were summarized in Tables 4-1 and 4-2 below, where the luminescence intensities were normalized to be the relative values of nCTZ/ALuc34 (100%).

[2] = tested on: ALuc34; experiment: Bioluminescence intensity, ALuc system test; type: biochemical; settings: for luminescence intensity (%): 1 μM substrate, relative to nCTZ/ALuc34
Description: as §1

[3] = tested on: ALuc16; experiment: Bioluminescence intensity, ALuc system test; type: biochemical; settings: 1 μM substrate, relative to nCTZ/ALuc34
Description: as §1

[4] = tested on: ALuc23; experiment: Bioluminescence intensity, ALuc system test; type: biochemical; settings: 1 μM substrate, relative to nCTZ/ALuc34
Description: as §1

[5] = molecular target: T1, RLuc8 (Renilla reniformis, UniProt P27652, A143M/A55T/C124A/K136R/M185V/M253L/S130A/S287L); type: biochemical; settings: bioluminescence spectrum, ATTO LumiFL
T1 construct: expressed in transfected cells; host or cells: COST cells (so in the source)
Description: (§2) As in the method for measuring bioluminescence intensity described above, luminescence spectrum was measured according to the protocol of Renilla Luciferase Assay System (Cat. No. E 2810; Promega). The luminescence spectrum was measured using ATTO LumiFL. The maximum luminescence intensities were normalized to be relative values to 1.0 upon determination of the maximum luminescence wavelength.

[6] = tested on: ALuc24; experiment: Bioluminescence intensity, ALuc system test; type: biochemical; settings: 1 μM substrate, relative to nCTZ/ALuc34
[7] = tested on: GLuc; experiment: Bioluminescence intensity, ALuc system test; type: biochemical; settings: 0 minutes after the start of measurement, 1 μM substrate, relative to nCTZ/ALuc34
[8] = molecular target: T1, RLuc8; type: biochemical; settings: 2 μM substrate in PBS pH 7.4, cell lysate, maximum intensity over 1 second, relative value
Text: (§3) The luciferases were respectively expressed in COST cells using an expression vector (pcDNA3.1(+), commercially available from Invitrogen) comprising the sequence encoding native Renilla Luciferase (RLuc) (trade name pGL4.75, commercially available from Promega) or an expression vector (trade name pcDNA3.1(+), commercially available from Invitrogen) comprising the sequence encoding a RLuc derivative RLuc8 or RLuc8.6-535 (Reference: Loening, A. M. et al., Nat. Methods, 2007, 4, 641-643.). The cells were lysed using a Renilla Luciferase Lysis Buffer (E291A, Promega), and the lysate was directly used as an enzyme solution. […] Bioluminescence was measured according to the protocol of Renilla Luciferase Assay System (Cat. No. E 2810; Promega). The luminescent substrate was dissolved in methanol to prepare a 2 mM solution. The solution was diluted to 2 μM with PBS buffer (pH 7.4), and the diluted solution was used as a substrate solution. To 200 μL of the substrate solution, 4 μL of the cell lysate containing RLuc, RLuc 8 or RLuc8.6-535 was added to start the luminescent reaction. The luminescence intensity was measured with a Berthold Lumat LB 9507 for 1 second, and indicated by the maximum luminescence intensity (I). The luminescence intensity of the native CTZ by RLuc8 was set to be 1.0, and the other bioluminescence intensities were normalized to be relative values to that of native CTZ.

[9] = tested on: artificial bioluminescent enzyme (ALuc); settings: same wavelength range (480-500 nm); cited from earlier work
[10] = tested on: ALuc30; experiment: Bioluminescence intensity, ALuc system test; type: biochemical; settings: 1 μM substrate, relative to nCTZ/ALuc34
[11] = molecular target: T2, native Renilla Luciferase (RLuc) (Renilla reniformis, UniProt P27652); experiment: Bioluminescence intensity, Renilla Luciferase luminescence system; type: biochemical; settings: 2 μM substrate in PBS pH 7.4, cell lysate, maximum intensity over 1 second, relative value
T2 construct: expressed in transfected cells; host or cells: COST cells (so in the source)
T2 sequence (P27652 1-311): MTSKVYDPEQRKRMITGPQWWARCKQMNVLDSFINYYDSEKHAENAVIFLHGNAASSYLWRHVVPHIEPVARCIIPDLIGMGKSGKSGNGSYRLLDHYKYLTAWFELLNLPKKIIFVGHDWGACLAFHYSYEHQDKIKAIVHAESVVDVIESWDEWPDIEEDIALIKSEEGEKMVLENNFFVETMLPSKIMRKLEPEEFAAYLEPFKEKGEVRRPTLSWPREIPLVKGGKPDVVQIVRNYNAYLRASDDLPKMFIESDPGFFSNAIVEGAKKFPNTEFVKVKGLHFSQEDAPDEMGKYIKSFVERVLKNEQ
Text: as §3, with “To 200 μL of the substrate solution, 4 μL of the cell lysate containing RLuc, RLuc 8 or RLuc8.6-535 was added to start the luminescent reaction.” left out

[12] = molecular target: T3, RLuc8.6-535 (Renilla reniformis, UniProt P27652, A123S/A143M/A55T/C124A/D154M/D162E/E155G/I163L/K136R/M185L/M253L/S130A/S287L); type: biochemical; design: expressed in transfected cells; host or cells: COST cells (so in the source); settings: for RLuc8.6-535 luminescence intensity (%): 2 μM substrate in PBS pH 7.4, cell lysate, maximum intensity over 1 second, relative value
Text: as §3

[13] = molecular target: T4, Renilla Luciferase (RLuc) (Renilla reniformis, UniProt P27652); settings: CTZ as luminescent substrate; cited from earlier work
T4 sequence (P27652 1-311): T2 sequence (P27652 1-311)

[14] = molecular target: T3, RLuc8.6-535; type: biochemical; design: expressed in transfected cells; host or cells: COST cells (so in the source); settings: bioluminescence spectrum, ATTO LumiFL
Description: as §2

[15] = molecular target: T3, RLuc8.6-535; experiment: Bioluminescence intensity, ALuc system test; type: biochemical; design: expressed in transfected cells; settings: 1 μM substrate, relative to nCTZ/ALuc34
Description: as §1

[16] = molecular target: T5, NanoLuc (Oplophorus gracilirostris, UniProt Q9GV45, A31E/A60N/A81I/F95D/I117V/K70R/L54V/L99Q/M102K/N193R/P142E/Q151K/Q38R/Q45L/V71I/Y165I); settings: combined with NanoLuc; cited from earlier work
T5 construct: literature Promega

[17] = ALuc22, 0 minutes after the start of measurement
[18] = ALuc22, 20 minutes after the start of measurement
[19] = ALuc34, 0 minutes after the start of measurement
[20] = ALuc34, 20 minutes after the start of measurement
[21] = ALuc16, 0 minutes after the start of measurement
[22] = ALuc16, 20 minutes after the start of measurement
[23] = ALuc23, 0 minutes after the start of measurement
[24] = ALuc23, 20 minutes after the start of measurement
[25] = ALuc24, 0 minutes after the start of measurement
[26] = ALuc24, 20 minutes after the start of measurement
[27] = ALuc30, 0 minutes after the start of measurement
[28] = ALuc30, 20 minutes after the start of measurement
[29] = RLuc8.6-535, 0 minutes after the start of measurement

T3 sequence (P27652 whole entry A55T/A123S/C124A/S130A/K136R/A143M/D154M/E155G/D162E/I163L/M185L/M253L/S287L): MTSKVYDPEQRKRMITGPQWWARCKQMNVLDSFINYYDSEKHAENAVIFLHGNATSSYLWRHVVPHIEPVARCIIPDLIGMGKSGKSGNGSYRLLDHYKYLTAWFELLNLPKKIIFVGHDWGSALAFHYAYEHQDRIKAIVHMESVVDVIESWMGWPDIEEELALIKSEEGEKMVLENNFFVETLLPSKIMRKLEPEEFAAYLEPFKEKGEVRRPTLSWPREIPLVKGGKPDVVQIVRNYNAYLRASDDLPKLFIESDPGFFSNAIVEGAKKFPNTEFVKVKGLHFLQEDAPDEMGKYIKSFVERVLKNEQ
T1 sequence (P27652 whole entry A55T/C124A/S130A/K136R/A143M/M185V/M253L/S287L): as the sequence (P27652 whole entry A55T/A123S/C124A/S130A/K136R/A143M/D154M/E155G/D162E/I163L/M185L/M253L/S287L) above, with S123A, M154D, G155E, E162D, L163I, L185V counted along it
T5 sequence (Q9GV45 28-196 with tags or gaps with the stated changes limits assumed): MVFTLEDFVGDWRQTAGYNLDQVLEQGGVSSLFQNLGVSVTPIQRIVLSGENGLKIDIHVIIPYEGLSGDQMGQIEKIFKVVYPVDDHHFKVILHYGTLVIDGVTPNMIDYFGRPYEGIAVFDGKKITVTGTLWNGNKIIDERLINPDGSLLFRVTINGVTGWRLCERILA

Structure (SMILES)	luminescence intensity (%) [1, 17] [%]	luminescence intensity (%) [1, 18] [%]	luminescence intensity (%) [2, 19] [%]	luminescence intensity (%) [2, 20] [%]	luminescence intensity (%) [3, 21] [%]	luminescence intensity (%) [3, 22] [%]	luminescence intensity (%) [4, 23] [%]	luminescence intensity (%) [4, 24] [%]	RLuc8 half-width (nm) [5]	RLuc8 maximum luminescence wavelength (nm) [5] [nm]	luminescence intensity (%) [6, 25] [%]	luminescence intensity (%) [6, 26] [%]	RLuc8 luminescence intensity (%) [8] [%]	luminescence intensity (%) [10, 27] [%]	luminescence intensity (%) [10, 28] [%]	RLuc luminescence intensity (%) [11] [%]	RLuc8.6-535 luminescence intensity (%) [12] [%]	RLuc8.6-535 half-width (nm) [14]	RLuc8.6-535 maximum luminescence wavelength (nm) [14] [nm]	luminescence intensity (%) [15, 29] [%]	also measured
Oc1ccc(Cc2nc3c(Cc4ccccc4)nc(-c4ccc(O)cc4)cn3c2O)cc1 [Native-CTZ, coelenterazine]	0.65	0.42	1.0	1	0.43	0.42	0.58	0.58	[98] nm	484	0.40	0.31	80.5	0.28	0.21	10.7	100	[111] nm	538	0.05	luminescence intensity (%) [7]: 0.08%; luminescence intensity higher than that of the conventional RLuc luminescence system [9]: about 50 fold; quantum yield of the RLuc luminescence system [13]: 0.05; luminescence intensity (%) ([15]; RLuc8.6-535, 20 minutes after the start of measurement): 0.05%
[N-]=[N+]=NCCOc1ccc(-c2cn3c(=O)c(Cc4ccc(O)cc4)nc-3c(Cc3ccccc3)[nH]2)cc1 [Example 6-Al2N3-CTZ]	1.32	0.46	3.45	1.27	1.72	0.60	2.53	1.00			0.56	0.17		0.83	0.28					0.01	luminescence intensity higher than that of native CTZ/ALuc34 ([2]; with ALuc34, immediately after the start of the measurement): about 3.4 fold
O=c1c(Cc2ccco2)nc2c(Cc3ccccc3)[nH]c(-c3ccccc3)cn1-2 [Furimazine]																					luminescence intensity higher than that of the firefly luciferase luminescence system [16]: about 100 fold
O=c1c(Cc2ccc(O)cc2)nc2c(Cc3ccccc3)[nH]c(-c3ccc(OCCCO)cc3)cn1-2 [6-Alkyl3OH-CTZ]									[60] nm	414			9.74			0.11	75.3	[56] nm	415		luminescence intensity higher than that of DeepBlueC/RLuc8 ([12]; with RLuc8.6-535, versus conventional blue-shifted RLuc luminescence system (DeepBlueC/RLuc8)): 32 fold
